This passage reports AC50, EC50 and IC50 results from ChEMBL document CHEMBL1201862, “PubChem BioAssay data set” (2004).

Active and inactive are the calls of the source.

In experiment [1] the target is Glycogen synthase kinase-3 beta (Homo sapiens, UniProt P49841). The experiment in a line: Inhibition of Human GSK-3 beta Activity Measured in Biochemical System Using Microfluidics - 2063-05_Inhibitor_Dose_DryPowder_Activity. [Related pubchem assays (depositor defined):AID2709].
Experiment [2] in a line: Luminescence Cell-Based Dose Response HTS to Identify Inhibitors of 5'UTR Stem-Loop Driven Prion Protein mRNA Translation in H4 Neuroglioblastoma Cells. [Related pubchem assays: 1827 (Project Summary), 1813 (Primary HTS)]. It counts as functional.
The nature of experiment [3]: inhibitors of firefly luciferase expression or activity, dose response, H4 neuroglioma cells, luminescence (AID 1990). It counts as functional, cell-based.
The nature of experiment [4]: inhibitors of SNCA 5'UTR-driven reporter translation, confirmation, H4 neuroglioma cells, luminescence (AID 1988). It counts as functional, cell-based.
Experiment [5] concerns the target Glycogen synthase kinase-3 alpha (Homo sapiens, UniProt P49840). As to the kind of experiment: Inhibition of Human GSK-3 alpha Activity Measured in Biochemical System Using Microfluidics - 2063-06_Inhibitor_Dose_DryPowder_Activity. [Related pubchem assays (depositor defined):AID2709].
For experiment [6], the target named is Type-1 angiotensin II receptor (Homo sapiens, UniProt P30556). The experiment in a line: AT1 receptor antagonists, dose response, selectivity assay for APJ receptor antagonist project, cell-based, uHTS hits (AID 463214).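 Note: antagonist potency against angiotensin II stimulated AT1 response.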 Type of experiment: functional.
The target in another experiment is Beta-galactosidase (Escherichia coli, UniProt Q8VNN2). As to the kind of experiment: PubChem AID 485352. Type of experiment: functional.
The target in another experiment is T1, Cytochrome P450 1A2 (Homo sapiens, UniProt P05177).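 Note: PubChem cytochrome P450 panel assay, CYP1A2 panel member.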
T1 sequence (P05177 whole entry): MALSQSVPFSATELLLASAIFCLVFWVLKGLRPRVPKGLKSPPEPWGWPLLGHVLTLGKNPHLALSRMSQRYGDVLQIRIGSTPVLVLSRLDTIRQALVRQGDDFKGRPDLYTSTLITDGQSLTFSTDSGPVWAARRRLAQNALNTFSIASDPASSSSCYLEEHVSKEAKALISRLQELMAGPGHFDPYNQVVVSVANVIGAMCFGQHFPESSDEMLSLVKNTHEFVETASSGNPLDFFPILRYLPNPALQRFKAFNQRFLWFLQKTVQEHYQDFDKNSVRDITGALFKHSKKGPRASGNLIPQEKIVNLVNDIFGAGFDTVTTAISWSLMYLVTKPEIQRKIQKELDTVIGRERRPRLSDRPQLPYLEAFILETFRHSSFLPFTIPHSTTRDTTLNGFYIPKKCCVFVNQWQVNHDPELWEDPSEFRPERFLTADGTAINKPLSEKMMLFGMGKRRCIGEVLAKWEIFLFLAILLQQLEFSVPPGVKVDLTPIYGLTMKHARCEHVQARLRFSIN

Another experiment concerns the target Cytochrome P450 2D6 (Homo sapiens, UniProt P10635).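 Note: CYP2D6 member of a cytochrome P450 panel assay.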
Experiment [7] can be described thus: insulin promoter down-regulators in MIN6 cells, imaging, high-content screening, mouse beta cells (AID 1628). Type of experiment: functional.
Experiment [8] is described as follows: cytotoxicity in MIN6 insulinoma cells, dose response, cytotoxicity control, cell-based, mouse insulinoma (AID 2122).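 Note: confirmatory high-throughput counterscreen run to flag cytotoxic compounds; mouse MIN-6 beta cells carrying an insulin promoter eGFP reporter.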 It counts as functional.
Experiment [9] deals with T2, Intestinal-type alkaline phosphatase (Homo sapiens, UniProt P09923). The experiment in a line: human IAP activators, dose response, biochemical, luminescent, uHTS hits, set 2 (AID 488817).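 Note: potency of activators that raise enzyme activity.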 It counts as functional.
For experiment [10], the target named is Intestinal-type alkaline phosphatase (Mus musculus, UniProt P24822). As to the kind of experiment: PubChem AID 488875. Type of experiment: functional.
Experiment [11] addresses T2, Intestinal-type alkaline phosphatase. The experiment in a line: human intestinal alkaline phosphatase activators, dose response, biochemical, luminescence, uHTS hits (AID 463120). It counts as functional.
The target of experiment [12] is T3, Alkaline phosphatase, tissue-nonspecific isozyme (Homo sapiens, UniProt P05186).
T3 sequence (P05186 whole entry): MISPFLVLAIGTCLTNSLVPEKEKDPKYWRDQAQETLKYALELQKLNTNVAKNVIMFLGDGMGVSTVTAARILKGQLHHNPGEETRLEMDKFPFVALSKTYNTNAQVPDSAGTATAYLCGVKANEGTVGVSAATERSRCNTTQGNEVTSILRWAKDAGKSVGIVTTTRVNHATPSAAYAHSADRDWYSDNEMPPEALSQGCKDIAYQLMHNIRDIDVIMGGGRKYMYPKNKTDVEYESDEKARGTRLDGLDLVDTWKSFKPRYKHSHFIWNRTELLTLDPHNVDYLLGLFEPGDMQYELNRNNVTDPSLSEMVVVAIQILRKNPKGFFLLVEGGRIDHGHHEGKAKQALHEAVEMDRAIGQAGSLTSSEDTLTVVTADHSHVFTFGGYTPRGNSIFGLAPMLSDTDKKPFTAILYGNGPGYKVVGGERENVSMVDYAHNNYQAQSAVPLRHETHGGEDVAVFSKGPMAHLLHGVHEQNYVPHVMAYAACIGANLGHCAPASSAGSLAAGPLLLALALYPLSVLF
The experiment in a line: TNAP enzyme activators, dose response, selectivity assay for human IAP activator project, biochemical, TNAP isozyme, human IAP uHTS hits (AID 488886).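 Note: potency of compounds raising TNAP activity as a selectivity check on IAP activators.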 It counts as functional.

For experiment [13], the target named is T4, Tyrosine-protein phosphatase non-receptor type 22 (Homo sapiens, UniProt Q9Y2R2).
T4 sequence (Q9Y2R2 whole entry): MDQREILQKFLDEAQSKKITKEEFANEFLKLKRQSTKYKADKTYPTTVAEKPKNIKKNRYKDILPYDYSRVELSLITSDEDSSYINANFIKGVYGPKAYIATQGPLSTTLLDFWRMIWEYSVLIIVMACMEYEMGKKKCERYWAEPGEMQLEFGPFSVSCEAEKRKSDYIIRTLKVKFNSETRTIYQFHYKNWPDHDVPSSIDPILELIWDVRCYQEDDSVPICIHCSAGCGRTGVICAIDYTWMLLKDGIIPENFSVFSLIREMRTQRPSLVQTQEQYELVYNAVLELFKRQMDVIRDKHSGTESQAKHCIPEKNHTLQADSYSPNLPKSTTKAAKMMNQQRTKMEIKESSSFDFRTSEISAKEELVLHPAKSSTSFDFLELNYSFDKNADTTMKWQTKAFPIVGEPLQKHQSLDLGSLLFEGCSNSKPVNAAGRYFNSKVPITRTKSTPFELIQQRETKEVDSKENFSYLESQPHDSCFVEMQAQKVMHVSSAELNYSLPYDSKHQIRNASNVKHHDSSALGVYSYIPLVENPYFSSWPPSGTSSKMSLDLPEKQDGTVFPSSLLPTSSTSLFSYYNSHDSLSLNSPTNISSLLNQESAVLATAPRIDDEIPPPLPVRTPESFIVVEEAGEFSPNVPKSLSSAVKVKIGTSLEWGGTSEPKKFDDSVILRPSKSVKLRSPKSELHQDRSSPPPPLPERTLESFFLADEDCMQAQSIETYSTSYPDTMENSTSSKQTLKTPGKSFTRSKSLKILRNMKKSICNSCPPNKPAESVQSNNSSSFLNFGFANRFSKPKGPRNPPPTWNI
Type of experiment: functional.

Experiment [14] deals with T4, Tyrosine-protein phosphatase non-receptor type 22. Type of experiment: functional. The source holds these as a separate data set.
In experiment [15] the target is T5, Tyrosine-protein phosphatase non-receptor type 7 (Homo sapiens, UniProt P35236).
T5 sequence (P35236 whole entry): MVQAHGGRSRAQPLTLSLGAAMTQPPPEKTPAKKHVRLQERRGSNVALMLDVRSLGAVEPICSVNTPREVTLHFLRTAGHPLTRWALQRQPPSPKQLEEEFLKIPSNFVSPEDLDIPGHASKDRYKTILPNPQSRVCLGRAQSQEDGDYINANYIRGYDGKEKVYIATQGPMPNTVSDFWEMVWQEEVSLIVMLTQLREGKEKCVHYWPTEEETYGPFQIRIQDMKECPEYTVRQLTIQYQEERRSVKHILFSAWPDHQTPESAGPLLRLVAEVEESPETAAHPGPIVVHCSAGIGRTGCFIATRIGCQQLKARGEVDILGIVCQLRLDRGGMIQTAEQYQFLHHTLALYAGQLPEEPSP
Type of experiment: functional.

In experiment [16] the test system is HEK293. As to the kind of experiment: cells. The following applies: Homo sapiens.
In experiment [17] the test system is HEK293. The experiment in a line: cells. The following applies: Homo sapiens. This is another data set of the same source.
The target of experiment [18] is T6, Histone-lysine N-methyltransferase NSD2 (Homo sapiens, UniProt O96028).
T6 sequence (O96028 whole entry): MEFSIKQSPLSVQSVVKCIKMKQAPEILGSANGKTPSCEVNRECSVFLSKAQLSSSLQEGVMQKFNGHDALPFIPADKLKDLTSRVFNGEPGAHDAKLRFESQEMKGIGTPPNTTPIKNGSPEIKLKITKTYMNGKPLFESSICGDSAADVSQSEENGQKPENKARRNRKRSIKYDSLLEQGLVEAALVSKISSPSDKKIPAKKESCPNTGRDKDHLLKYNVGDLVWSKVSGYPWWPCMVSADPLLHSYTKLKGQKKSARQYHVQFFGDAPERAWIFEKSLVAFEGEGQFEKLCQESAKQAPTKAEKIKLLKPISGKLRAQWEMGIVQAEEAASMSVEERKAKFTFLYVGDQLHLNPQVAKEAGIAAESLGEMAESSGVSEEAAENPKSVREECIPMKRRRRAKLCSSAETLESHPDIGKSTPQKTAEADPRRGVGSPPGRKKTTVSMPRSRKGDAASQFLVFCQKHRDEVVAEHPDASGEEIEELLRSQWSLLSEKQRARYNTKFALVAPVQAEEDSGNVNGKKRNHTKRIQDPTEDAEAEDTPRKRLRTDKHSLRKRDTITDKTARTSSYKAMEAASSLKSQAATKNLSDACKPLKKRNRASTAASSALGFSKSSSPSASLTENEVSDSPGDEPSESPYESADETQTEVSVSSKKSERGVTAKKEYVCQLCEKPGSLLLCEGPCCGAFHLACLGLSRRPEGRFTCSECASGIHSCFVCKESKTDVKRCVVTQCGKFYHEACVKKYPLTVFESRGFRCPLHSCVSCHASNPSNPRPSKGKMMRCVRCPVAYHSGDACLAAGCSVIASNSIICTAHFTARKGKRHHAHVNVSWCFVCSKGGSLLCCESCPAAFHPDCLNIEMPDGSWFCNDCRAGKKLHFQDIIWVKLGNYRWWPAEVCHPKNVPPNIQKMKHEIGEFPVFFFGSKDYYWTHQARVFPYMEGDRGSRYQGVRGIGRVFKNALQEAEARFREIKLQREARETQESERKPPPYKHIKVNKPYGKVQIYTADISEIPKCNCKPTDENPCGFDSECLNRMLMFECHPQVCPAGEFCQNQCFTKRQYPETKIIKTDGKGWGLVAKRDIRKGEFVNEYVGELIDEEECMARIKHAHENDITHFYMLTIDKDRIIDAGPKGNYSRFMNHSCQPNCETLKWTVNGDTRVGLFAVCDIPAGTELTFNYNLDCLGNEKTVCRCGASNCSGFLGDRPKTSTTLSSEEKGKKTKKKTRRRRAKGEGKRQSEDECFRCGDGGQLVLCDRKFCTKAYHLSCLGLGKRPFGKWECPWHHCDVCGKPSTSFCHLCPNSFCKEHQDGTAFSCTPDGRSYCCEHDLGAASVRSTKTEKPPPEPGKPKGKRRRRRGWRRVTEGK
It counts as biochemical.

The target in experiment [19] is Dual specificity tyrosine-phosphorylation-regulated kinase 1A (Rattus norvegicus, UniProt Q63470). It counts as biochemical, Homo sapiens.

T2 sequence (P09923 whole entry): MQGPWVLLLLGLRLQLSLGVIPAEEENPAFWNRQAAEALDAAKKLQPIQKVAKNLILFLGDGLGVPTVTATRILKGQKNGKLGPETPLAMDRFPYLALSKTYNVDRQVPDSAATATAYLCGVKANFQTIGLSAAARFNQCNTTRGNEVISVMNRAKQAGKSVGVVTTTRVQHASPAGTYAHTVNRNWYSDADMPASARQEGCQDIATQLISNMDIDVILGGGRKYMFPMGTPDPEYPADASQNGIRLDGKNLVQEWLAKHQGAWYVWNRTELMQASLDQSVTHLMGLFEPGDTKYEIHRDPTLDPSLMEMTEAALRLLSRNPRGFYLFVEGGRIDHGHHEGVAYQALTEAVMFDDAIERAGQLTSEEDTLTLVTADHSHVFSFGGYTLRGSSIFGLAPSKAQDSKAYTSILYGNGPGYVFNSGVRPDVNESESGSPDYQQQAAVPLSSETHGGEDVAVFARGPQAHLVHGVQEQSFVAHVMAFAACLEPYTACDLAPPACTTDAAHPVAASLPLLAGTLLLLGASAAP
Type-1 angiotensin II receptor, sequence (P30556 whole entry): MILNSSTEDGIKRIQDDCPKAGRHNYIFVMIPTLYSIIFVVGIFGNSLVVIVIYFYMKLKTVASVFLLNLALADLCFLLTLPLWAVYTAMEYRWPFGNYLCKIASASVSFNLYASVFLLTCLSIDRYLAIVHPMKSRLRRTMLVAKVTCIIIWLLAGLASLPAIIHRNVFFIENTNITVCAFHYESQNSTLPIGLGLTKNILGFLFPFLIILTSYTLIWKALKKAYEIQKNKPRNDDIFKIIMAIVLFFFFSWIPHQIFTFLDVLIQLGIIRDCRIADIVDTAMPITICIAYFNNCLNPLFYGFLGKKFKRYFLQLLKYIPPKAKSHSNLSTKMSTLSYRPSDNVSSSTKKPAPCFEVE
Beta-galactosidase, sequence (Q8VNN2 whole entry): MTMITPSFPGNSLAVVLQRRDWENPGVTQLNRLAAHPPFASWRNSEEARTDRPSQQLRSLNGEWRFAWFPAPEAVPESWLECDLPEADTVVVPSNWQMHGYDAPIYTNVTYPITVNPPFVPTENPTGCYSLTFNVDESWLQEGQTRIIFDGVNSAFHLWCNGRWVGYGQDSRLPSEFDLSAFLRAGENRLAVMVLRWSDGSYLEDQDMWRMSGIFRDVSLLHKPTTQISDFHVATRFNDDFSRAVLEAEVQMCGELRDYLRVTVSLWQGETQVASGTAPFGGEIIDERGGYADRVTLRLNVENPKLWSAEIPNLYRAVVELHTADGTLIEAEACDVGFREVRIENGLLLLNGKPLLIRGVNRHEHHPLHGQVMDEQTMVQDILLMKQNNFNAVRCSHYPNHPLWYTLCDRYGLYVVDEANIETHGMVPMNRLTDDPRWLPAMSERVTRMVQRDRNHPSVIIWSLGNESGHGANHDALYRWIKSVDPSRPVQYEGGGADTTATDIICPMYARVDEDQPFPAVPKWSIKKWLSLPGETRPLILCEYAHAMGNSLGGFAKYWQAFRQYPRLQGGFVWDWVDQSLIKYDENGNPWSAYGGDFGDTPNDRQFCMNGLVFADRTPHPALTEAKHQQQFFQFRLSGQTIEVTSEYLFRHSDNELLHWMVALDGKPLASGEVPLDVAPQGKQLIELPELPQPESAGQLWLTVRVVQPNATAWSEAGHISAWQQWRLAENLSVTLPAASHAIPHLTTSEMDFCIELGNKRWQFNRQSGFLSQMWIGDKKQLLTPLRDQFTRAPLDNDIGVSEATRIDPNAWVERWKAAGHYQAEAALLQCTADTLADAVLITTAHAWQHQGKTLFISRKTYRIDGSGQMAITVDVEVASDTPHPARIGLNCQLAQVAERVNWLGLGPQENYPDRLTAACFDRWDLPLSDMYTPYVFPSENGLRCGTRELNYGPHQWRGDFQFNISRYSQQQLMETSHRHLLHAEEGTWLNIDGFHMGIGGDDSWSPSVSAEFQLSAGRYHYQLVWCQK
Intestinal-type alkaline phosphatase (Mus musculus, UniProt P24822), sequence (P24822 whole entry): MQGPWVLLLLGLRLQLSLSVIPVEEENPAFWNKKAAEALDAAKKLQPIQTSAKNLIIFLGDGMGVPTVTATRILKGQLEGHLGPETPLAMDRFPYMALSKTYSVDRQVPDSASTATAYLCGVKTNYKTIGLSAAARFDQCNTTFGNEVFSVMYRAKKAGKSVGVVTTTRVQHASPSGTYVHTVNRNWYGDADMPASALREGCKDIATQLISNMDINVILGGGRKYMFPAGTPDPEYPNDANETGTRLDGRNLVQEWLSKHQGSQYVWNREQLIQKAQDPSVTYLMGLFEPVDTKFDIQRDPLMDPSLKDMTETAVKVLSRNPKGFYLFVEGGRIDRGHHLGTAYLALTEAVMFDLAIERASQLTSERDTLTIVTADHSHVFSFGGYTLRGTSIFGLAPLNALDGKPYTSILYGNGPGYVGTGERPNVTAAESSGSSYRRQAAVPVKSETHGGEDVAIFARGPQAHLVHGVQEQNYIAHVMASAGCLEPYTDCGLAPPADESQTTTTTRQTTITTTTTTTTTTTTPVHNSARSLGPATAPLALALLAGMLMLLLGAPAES
Glycogen synthase kinase-3 alpha, sequence (P49840 whole entry): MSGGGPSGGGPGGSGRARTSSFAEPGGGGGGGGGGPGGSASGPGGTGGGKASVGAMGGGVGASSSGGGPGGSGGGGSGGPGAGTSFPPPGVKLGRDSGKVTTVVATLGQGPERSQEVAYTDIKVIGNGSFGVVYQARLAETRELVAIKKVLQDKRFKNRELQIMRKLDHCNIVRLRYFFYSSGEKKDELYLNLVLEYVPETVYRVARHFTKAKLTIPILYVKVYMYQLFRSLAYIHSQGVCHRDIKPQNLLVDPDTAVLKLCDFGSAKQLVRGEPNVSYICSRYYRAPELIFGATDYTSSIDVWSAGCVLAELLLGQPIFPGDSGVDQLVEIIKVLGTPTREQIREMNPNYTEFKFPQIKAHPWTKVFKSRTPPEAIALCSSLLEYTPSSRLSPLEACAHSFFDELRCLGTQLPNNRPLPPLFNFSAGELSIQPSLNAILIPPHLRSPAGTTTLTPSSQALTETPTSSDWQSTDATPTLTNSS
Glycogen synthase kinase-3 beta, sequence (P49841 whole entry): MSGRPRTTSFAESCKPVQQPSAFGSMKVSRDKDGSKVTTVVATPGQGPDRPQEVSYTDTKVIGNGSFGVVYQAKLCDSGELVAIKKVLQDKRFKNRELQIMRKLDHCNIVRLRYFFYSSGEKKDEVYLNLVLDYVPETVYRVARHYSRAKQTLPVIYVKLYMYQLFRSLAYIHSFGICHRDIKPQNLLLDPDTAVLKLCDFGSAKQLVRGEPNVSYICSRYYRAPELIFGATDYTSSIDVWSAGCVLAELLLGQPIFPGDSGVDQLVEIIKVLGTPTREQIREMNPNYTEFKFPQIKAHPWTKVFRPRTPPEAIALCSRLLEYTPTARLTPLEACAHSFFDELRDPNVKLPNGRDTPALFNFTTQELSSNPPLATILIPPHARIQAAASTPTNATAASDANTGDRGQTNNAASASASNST
Cytochrome P450 2D6, sequence (P10635 whole entry): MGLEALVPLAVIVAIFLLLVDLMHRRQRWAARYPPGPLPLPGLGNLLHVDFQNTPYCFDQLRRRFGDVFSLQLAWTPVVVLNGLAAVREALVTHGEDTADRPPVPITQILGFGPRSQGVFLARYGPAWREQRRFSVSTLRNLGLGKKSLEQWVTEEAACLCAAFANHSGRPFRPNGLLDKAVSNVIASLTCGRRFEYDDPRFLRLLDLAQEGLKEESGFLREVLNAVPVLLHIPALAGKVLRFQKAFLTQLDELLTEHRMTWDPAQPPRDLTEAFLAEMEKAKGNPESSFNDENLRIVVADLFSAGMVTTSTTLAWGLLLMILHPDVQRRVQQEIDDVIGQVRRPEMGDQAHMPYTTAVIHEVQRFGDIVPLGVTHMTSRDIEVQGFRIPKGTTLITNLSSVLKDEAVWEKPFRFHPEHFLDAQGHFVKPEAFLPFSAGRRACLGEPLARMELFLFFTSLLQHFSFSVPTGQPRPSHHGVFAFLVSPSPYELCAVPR

One may read the AC50 as the concentration giving half of the maximal activity seen. By EC50 is commonly meant the midpoint of the concentration-response curve. On to `C=CCNc1nc(N)c([N+](=O)[O-])c(Nc2ccccc2OC)n1`, for which the AC50 is 0.0544 µM (active) in experiment [1] and 0.388 µM (active) in experiment [5]. Besides, the EC50 in experiment [2] was 11.7 µM (active); in experiment [3], 11.4 µM (active); in experiment [4], 14.2 µM (active).

By IC50 is commonly meant the concentration that inhibits the measured activity by half. For `O=c1c2cc(Br)ccc2[nH]c(=S)n1Cc1ccccn1`, in experiment [6], the IC50 is listed as 29.7 µM (not active). The EC50 at Beta-galactosidase was > 40 µM (inactive).

`c1ccc2c(CSc3nnc(-c4ccncc4)o3)cccc2c1`: the AC50 in experiment [1] is 0.143 µM (active); at Cytochrome P450 1A2 it was 3.16 µM (inconclusive); at Cytochrome P450 2D6, 0.501 µM (inconclusive); in experiment [5], 2.93 µM (active).

Consider `COc1ccc(NCc2nc3ccccc3n2CCOc2ccc(C)cc2)cc1`, for which the IC50 in experiment [7] is 2 µM (active); in experiment [8], 4.54 µM (active).

`Cc1nc(Nc2nc3c(c(=O)[nH]2)CCC3)nc2ccccc12`: the EC50 in experiment [9] is 17.6 µM (active); in experiment [10], > 100 µM (inactive); in experiment [11] it was 13.1 µM (active); in experiment [12], 26.1 µM (active).

Take `N#CC(C(=O)NC1CCCCC1)=C1CCCCC1`: the IC50 in experiment [13], in experiment [14] and in [15] was > 79.4 µM (inactive) each time.

Take `CN(CC(=O)Nc1ccccc1F)CC(=O)Nc1ccc(F)c(F)c1F`: the concentration giving a half-maximal response (EC50) in [9] was 23.6 µM (active); in experiment [10] it was > 100 µM (inactive); in experiment [11] it was 15.8 µM (active); in [12], 23.3 µM (active).

With `COc1ccc(N2C(=O)CC(N(CCc3ccc(OC)c(OC)c3)C(S)=Nc3ccccc3)C2=O)cc1` (stereo not given), the EC50 with HEK293 [16] and with HEK293 [17] was > 59.6 µM (inactive) each time.

For the molecule `Cc1[nH]n(C(N)=S)c(=O)c1/N=N/c1ccc([N+](=O)[O-])cc1Cl`, in experiment [6], the IC50 was > 40 µM (not active). Moreover, the EC50 on Beta-galactosidase is > 40 µM (inactive).

On to `CC12CCC(=O)N1c1ccccc1C(=O)N2c1ccccc1` (stereo not given), for which the IC50 in [13], in [14] and in experiment [15] was > 79.4 µM (inactive) throughout.

Turning to `NC1(C(=O)O)CSSC1`, the EC50 in the experiment with HEK293 [16] and in the experiment with HEK293 [17] was > 59.8 µM (inactive) each time. Further, in [18], the AC50 is 14.5 µM (active).

`OC[C@H]1O[C@@H](n2cnc3cc(Cl)c(Cl)cc32)[C@H](O)[C@@H]1O` [DICHLORORIBOBENZIMIDAZOLE]: the AC50 in experiment [19] is 3.76 µM (active).
